Test results published in EP3153515A1, “COMPOUNDS FOR INHIBITING HEPATITIS C VIRUS, PHARMACEUTICAL COMPOSITIONS AND USES THEREOF” (priority 2014, dated 2015).
Like-named read-outs stand apart in the source and are kept apart here.

Columns and labels:
HCV NS5A replicon GT-4a = assay: HCV NS5A replicon anti-viral activity (EC50), GT-4a; assay type: cell-based; conditions: Hepatitis C virus, genotype 1a / genotype 4a / genotype 6a, read-out: Inhibitory activity against various HCV-NS5A subtypes(EC50, GT-1a to GT-6a) GT-4a
Source text: (§1) The autonomous replication level of HCV in liver cells in vitro is very low, and the only animal that can be infected by HCV is chimpanzee, therefore there is no appropriate animal model currently available for preclinical pharmacodynamic study. Some researchers have transplanted human liver tissue infected with HCV in vitro into immune deficient mice to establish an in vivo mice model, but these mice are hard to raise and the model is unstable and short of normal immunologic reaction. Moreover, the model has significant difference with the pathogenic process of hepatitis C, therefore, it has not been used for animal model to assess the action of anti-HCV medicine yet. The progress of the development of anti-viral drugs for the treatment of HCV infection had been very slow because the pathogenic mechanism and life cycle of HCV were unclear before 1999 due to the lack of cell culture system for effective multiplication of HCV. But researchers managed to achieve a breakthrough in 1999 after numerous attempts. An effective cell culture model-replicon system in which HCV is capable of autonomous replication in transfected human hepatic carcinoma cell line Huh-7 had been established in that year on the basis of subgenomic HCV RNA built with genetic engineering.
(§2) The above-mentioned cell culture model-replicon system which has been widely accepted in the industry is used in this invention for ex vivo experiments and subsequent assessment of drugs based on the experiment results.
(§3) The therapeutic effect of the compounds of this invention on HCV infection can be preliminarily assessed through the following preclinical in vitro inhibitory action test and can be further confirmed in clinical trials. Other methods used in the invention are also quite familiar to professionals in this field with ordinary technical knowledge. Method for testing the anti-viral activity(EC50) in HCV NS5A replicon system: • The viral replication level in infected cells was determined by testing Renilla luciferase with the newly established dual-reporter gene replicon system. There was a good linear relation between the expression level of the reporter gene and the HCV RNA replication level and viral protein expression level. The anti-viral activity was determined for 3 replicates in 3 replicate cells at five(5) 1:2 diluted concentration gradients, with 1 to 2 positive controls. The EC50 of the compounds was calculated in the end.
(§4) The compounds of the invention, or their stereoisomers, tautomers, esterified or amidated prodrugs, or pharmaceutically acceptable salts and mixtures have been subjected to test to determined their therapeutic effects in the treatment of HCV infection. […] Moreover, the results of 6a-6ep(Ia), 6fa-6gq(Ib) and reference compounds Ref-1(BMS-790052), Ref-2(GS5885), Ref-3 in HCV-NS5 inhibition test reveal that the cyclopentanyl/hexamethyleneamino radical containing linear polypeptide compounds 6a-6ep, 6fa-6gq and reference compounds Ref-1, Ref-2, Ref-3 have good HCV inhibitory results. […] The replicons GT-1a, GT-lb, GT-2a, GT-3a, GT-4a, GT-5a and GT-6a used for the test are routine replicons commercially available in this field. Table 1: HCV NS5A replicon inhibitory activity test results of compounds (6a-6gq) of the invention

HCV NS5A replicon GT-2a = assay: HCV NS5A replicon anti-viral activity (EC50), GT-2a; assay type: cell-based; conditions: Hepatitis C virus, genotype 1a / genotype 2a / genotype 6a; GT-2a replicon; read-out: Inhibitory activity against various HCV-NS5A subtypes(EC50, GT-1a to GT-6a) GT-2a
Source text: as §1, §2, §3, §4

HCV NS5A replicon GT-3a = assay: HCV NS5A replicon anti-viral activity (EC50), GT-3a; assay type: cell-based; conditions: Hepatitis C virus, genotype 1a / genotype 3a / genotype 6a, read-out: Inhibitory activity against various HCV-NS5A subtypes(EC50, GT-1a to GT-6a) GT-3a
Source text: as §1, §2, §3, §4

HCV NS5A replicon GT-6a = assay: HCV NS5A replicon anti-viral activity (EC50), GT-6a; assay type: cell-based; conditions: Hepatitis C virus, genotype 1a / genotype 6a; GT-6a replicon; read-out: Inhibitory activity against various HCV-NS5A subtypes(EC50, GT-1a to GT-6a) GT-6a
Source text: as §1, §2, §3, §4

HCV NS5A replicon GT-1a = assay: HCV NS5A replicon anti-viral activity (EC50), dual-reporter Renilla luciferase, GT-1a; assay type: cell-based; conditions: for EC50: Hepatitis C virus
HCV NS5A replicon GT-lb = assay: HCV NS5A replicon anti-viral activity (EC50), GT-1b; assay type: cell-based; conditions: Hepatitis C virus, genotype 1a / genotype 6a, read-out: Inhibitory activity against various HCV-NS5A subtypes(EC50, GT-1a to GT-6a) GT-lb
Source text: as §1, §2, §3, §4

HCV NS5A replicon GT-5a = assay: HCV NS5A replicon anti-viral activity (EC50), GT-5a; assay type: cell-based; conditions: Hepatitis C virus, genotype 1a / genotype 5a / genotype 6a, read-out: Inhibitory activity against various HCV-NS5A subtypes(EC50, GT-1a to GT-6a) GT-5a
Source text: as §1, §2, §3, §4

ICR mice = assay: MTD screening test (acute toxicity study) in mice; assay type: in vivo; conditions: high dosage
Protocol: Method: ICR mice, 10 mice/group, 5 males and 5 females. A treatment group and a control group are set up for every drugs, respectively, mice in control group were administered 0.5%CMC-Na solution, i.e. the solvent of the drugs. The mice were fasted overnight but granted free access to water before the administration. Their body weight before the administration of drugs is in the range of 18.8∼24.1 g. The mice were administered the drugs by peroral lavage at the dosage of 40 mL/kg. The mice were closely observed 3 hours after the administration and twice a day afterwards for 7 days, one in the morning and one in the afternoon. At the end of the observation period, 2 mice (1 male and 1 female) were randomly selected from each treatment group and subjected to histopathological examination of part of their tissues and organs.
Two third of the novel heterocyclic compounds that have good HCV inhibiting activity (EC50: <0.05nM) after administration of the drugs by lavage at the dosage of 2000mg/kg yield a survival rate of 100%. […] Two third of the novel compounds that show high HCV inhibiting activity have very low overall toxicity (survive rate of mice after administration: 100%). It is believed that these compounds are generally nontoxic.

[1] = GT1A, GT-1a replicon, read-out: NS5A Inhibitory Activity (EC50 of GT-1a subtype inhibition)

| SMILES | EC50 (HCV NS5A replicon GT-4a) | EC50 (HCV NS5A replicon GT-2a) | EC50 (HCV NS5A replicon GT-3a) | EC50 (HCV NS5A replicon GT-6a) | EC50 (HCV NS5A replicon GT-1a; [1]) | EC50 (HCV NS5A replicon GT-1a; genotype 1a / genotype 6a, read-out: Inhibitory activity against various HCV-NS5A subtypes(EC50, GT-1a to GT-6a) GT-1a) | inhibitory activity compared with Ref-1(BMS-790052), Ref-2(GS5885), Ref-3 and Ref-4 (in words) (HCV NS5A replicon GT-1a; comparison drawn from Table 2) | EC50 (HCV NS5A replicon GT-lb) | EC50 (HCV NS5A replicon GT-5a) | toxicity (in words) (ICR mice) |
| --- | --- | --- | --- | --- | --- | --- | --- | --- | --- | --- |
| COC(=O)N[C@H](C(=O)N1CCC[C@H]1c1nc(-c2ccc(-c3ccc(-c4cnc([C@@H]5C=CCN5C(=O)[C@H](NC(=O)OC)c5ccccc5)[nH]4)cc3)cc2)c[nH]1)C(C)C [6dy] | 0.008 nM | 0.006 nM | 0.015 nM | 0.024 nM | 0.001 to 0.999 nM | 0.011 nM | significantly superior | 0.014 nM | 0.023 nM | low toxicity at high dosage |
| COC(=O)N[C@@H](C(=O)N1CC=C[C@H]1c1ncc(-c2ccc(-c3csc4c(-c5c[nH]c([C@@H]6CCCN6C(=O)[C@H](NC(=O)OC)c6ccccc6)n5)csc34)cc2)[nH]1)c1ccccc1 [6fm] |  |  |  |  | 0.001 to 0.999 nM |  |  |  |  | low toxicity at high dosage |
